# Assay results taken from ChEMBL document CHEMBL1153127, “p16(INK4a) Peptide mimetics identified via virtual screening” (Bioorg Med Chem Lett, 2010).
# pIC50: −log10 of the molar value.
# How the values were obtained:
# Assay type in all cases: protein-complex assay; call rule not given here
# [1] = molecular target: Cyclin-dependent kinase 4/cyclin D1 (Homo sapiens, UniProt P11802); test: Inhibition of CDK4/Cyclin D1 by FRET assay
# CDK6/cyclin D1 [2] = molecular target: CDK6/cyclin D1 (Homo sapiens, UniProt Q00534); test: (§1) Inhibition of CDK6/Cyclin D1 by FRET assay
# Sequence of CDK6/cyclin D1 (Homo sapiens, UniProt Q00534) (P24385 whole entry): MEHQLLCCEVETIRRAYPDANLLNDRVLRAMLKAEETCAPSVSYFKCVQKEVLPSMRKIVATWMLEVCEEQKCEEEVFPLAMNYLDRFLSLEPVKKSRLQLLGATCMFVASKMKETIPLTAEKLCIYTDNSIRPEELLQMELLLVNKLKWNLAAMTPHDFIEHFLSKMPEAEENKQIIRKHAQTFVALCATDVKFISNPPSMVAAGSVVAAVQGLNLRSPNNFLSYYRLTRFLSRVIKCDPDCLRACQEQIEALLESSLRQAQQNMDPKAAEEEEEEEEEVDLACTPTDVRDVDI
# Sequence of CDK6/cyclin D1 (Homo sapiens, UniProt Q00534) (Q00534 whole entry): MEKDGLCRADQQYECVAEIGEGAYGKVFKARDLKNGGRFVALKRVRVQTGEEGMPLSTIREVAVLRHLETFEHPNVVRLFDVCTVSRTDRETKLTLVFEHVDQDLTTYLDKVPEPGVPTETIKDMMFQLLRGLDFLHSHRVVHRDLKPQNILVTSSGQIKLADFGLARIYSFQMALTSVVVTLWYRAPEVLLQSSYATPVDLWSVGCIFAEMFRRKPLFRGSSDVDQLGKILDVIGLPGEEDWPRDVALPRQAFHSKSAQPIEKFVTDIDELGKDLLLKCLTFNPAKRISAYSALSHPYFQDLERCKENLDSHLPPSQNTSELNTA
# CDK6/cyclin D1 [3] = molecular target: CDK6/cyclin D1 (Homo sapiens, UniProt P24385+Q00534); test: as §1
# Sequence of CDK6/cyclin D1 (Homo sapiens, UniProt P24385+Q00534) (P24385 whole entry): as the sequence (P24385 whole entry) above
# Sequence of CDK6/cyclin D1 (Homo sapiens, UniProt P24385+Q00534) (Q00534 whole entry): as the sequence (Q00534 whole entry) above
# Sequence of Cyclin-dependent kinase 4/cyclin D1 (P11802 whole entry): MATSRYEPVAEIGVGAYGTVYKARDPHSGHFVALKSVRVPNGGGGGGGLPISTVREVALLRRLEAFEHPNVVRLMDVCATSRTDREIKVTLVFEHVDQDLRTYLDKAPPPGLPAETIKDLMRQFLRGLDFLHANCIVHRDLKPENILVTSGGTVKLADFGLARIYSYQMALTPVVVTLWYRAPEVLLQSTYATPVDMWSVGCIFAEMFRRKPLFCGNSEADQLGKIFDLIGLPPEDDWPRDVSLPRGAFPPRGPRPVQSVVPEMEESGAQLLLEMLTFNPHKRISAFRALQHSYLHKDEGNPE
# Sequence of Cyclin-dependent kinase 4/cyclin D1 (P24385 whole entry, further chain): as the sequence (P24385 whole entry) above
pIC50 [1],pIC50 (CDK6/cyclin D1 [2]),IC50 (CDK6/cyclin D1 [3]),Structure (SMILES)
3.79,3.49,–,COc1cc(NCCCN(CCC(C)C)CCC(C)C)c2ncccc2c1
3.89,–,Not Active,COc1cc(NCCN(CC(C)C)CC(C)C)c2ncc(C)cc2c1
